The record followed here is patent US12221453B2, “Substituted pyrazolo[5′,1′:2,3]pyrimido[5,4-b][1,4]oxazines as TYK2 inhibitors” (TAKEDA PHARMACEUTICAL COMPANY LIMITED, priority 2018, dated 2025).

SMILES strings stand for the structures. Bounds are passed on as bounds.

In this test the test system is IL-12 induced STAT4 phosphorylation mediated by TYK2/JAK2. The test can be described thus: IL-12 induced pSTAT4 in human PBMC. Type of test: cell-based. As to conditions: 1 hr compound, 1.7 ng/mL IL-12 for 30 minutes. Here is the method: Human PBMC were isolated from buffy coat and are stored frozen for assays as needed. […] 15 μL of compound or DMSO was added to the well at the desired concentrations and incubated at 1 hr at 37° C. 15 μL of stimulus (final concentration of 1.7 ng/mL IL-12) was added for 30 minutes prior to pSTAT4 and total STAT4 analysis using cell lysates prepared and analyzed by MSD reagents as per manufacturer protocol. The final DMSO concentration of compound in the assay was 0.1%. The IL-12 induced pSTAT4 assay evaluates the inhibition of IL-12 induced STAT4 phosphorlyation mediated by TYK2/JAK2 ([…] complex).
What is called IC50 is the concentration at which inhibition is half-maximal. `CNc1cc(Nc2cccn([C@H]3CCC[C@H]3O)c2=O)nc2c(C(=O)NC3CC[C@]3(C)OC)cnn12` (stereo partly shown) [Compound I-390] showed an IC50 of under 0.1 µM.
In the case of `CNc1cc(Nc2cccn([C@@H]3CCC[C@](C)(OC)C3)c2=O)nc2c(C(=O)NC3CC3)cnn12` [Compound I-124], the IC50 was under 0.1 µM.
In turn, `CNc1cc(Nc2cccn([C@H]3C[C@H](OC)C3)c2=O)nc2c(C(=O)N[C@@H]3CC[C@H]3F)cnn12` [Compound I-178] yielded an IC50 of under 0.1 µM.
The figure for `CNc1cc(-c2cn([C@@H]3CCOC[C@H]3F)c3ncccc23)nc2c(C(=O)NC3CC[C@@H]3OC)cnn12` (stereo partly shown) [Compound I-652] is under 0.1 µM.
In the case of `CNc1cc(Nc2cccn(C3CCOCC3)c2=O)nc2c(C(=O)N[C@@H]3CCC3(F)F)cnn12` [Compound I-311] it was under 0.1 µM.
The figure for `CNc1cc(Nc2cccn([C@H]3C[C@@H](OC)C3)c2=O)nc2c(C(=O)NC3CC[C@@H]3OC)cnn12` (stereo partly shown) [Compound I-780] is under 0.1 µM; for `CNc1cc(Nc2cccn(-c3ocnc3C)c2=O)nc2c(C(=O)N[C@H]3CC[C@@H]3F)cnn12` [Compound I-186] it is under 0.1 µM.
For the compound `CNc1cc(Nc2cccn(C3COC3)c2=O)nc2c(C(=O)N[C@@H]3C[C@@H]3F)cnn12` [Compound I-125], the IC50 was under 0.1 µM.
`CNc1cc(Nc2cccn(C3[C@H]4COC[C@@H]34)c2=O)nc2c(C(=O)NC3C[C@H]3OC)cnn12` (mixture of isomers) [I-24, 5-((1-((1R,5S,6r)-3-Oxabicyclo[3.1.0]hexan-6-yl)-2-oxo-1,2-dihydropyridin-3-yl)amino)-N-(2-methoxycyclopropyl)-7-(methylamino)pyrazolo[1,5-a]pyrimidine-3-carboxamide]: the IC50 is under 0.1 µM.
Compound `CNc1cc(-c2cn(C3CCCC3)c3ncccc23)nc2c(C(=O)N[C@@H]3CCC3(F)F)cnn12` [Compound I-681] registered a half-inhibitory concentration (IC50) of under 0.1 µM.
In the case of `CNc1cc(Nc2cccn([C@@H]3CCOC[C@@H]3OC)c2=O)nc2c(C(=O)N[C@@H]3CCC3(F)F)cnn12` [Compound I-338], the IC50 is under 0.1 µM.
`CNc1cc(-c2cnc3n([C@H]4COC[C@@H]4O)cccc2-3)nc2c(C(=O)N[C@H]3CC[C@@H]3F)cnn12` [Compound I-828] returned a half-maximal inhibitory concentration (IC50) of under 0.1 µM.
The figure for `CNc1cc(Nc2cccn([C@@H]3CCC[C@@H]3O)c2=O)nc2c(C(=O)NC3CC[C@@H]3F)cnn12` (stereo partly shown) [Compound I-179] is under 0.1 µM; for `O=C(NC1CC[C@@H]1F)c1cnn2c3c(c(-c4cn(C5COC5)c5ncccc45)nc12)OCCN3` (stereo partly shown) [Compound I-774] it is under 0.1 µM; for `CNc1cc(-c2cn([C@@H]3CCOC[C@@H]3OC)c3ncccc23)nc2c(C(=O)NC3CCC3(F)F)cnn12` (stereo partly shown) [Compound I-702] it is under 0.1 µM.
In the case of `CNc1ccc(-c2cc(NC)n3ncc(C(=O)NC4CC[C@@H]4OC)c3n2)n2ccnc12` (stereo partly shown) [Compound I-488] it was under 0.1 µM; in that of `CNc1cc(-c2cn([C@@H]3COC[C@H]3OC)c3ncccc23)nc2c(C(=O)N[C@H]3CC[C@@H]3OC)cnn12` [Compound I-637], under 0.1 µM.
The figure for `CNc1cc(-c2cn([C@@H]3CCN(C)C3)c3ncccc23)nc2c(C(=O)N[C@H]3CC[C@@H]3OC)cnn12` [Compound I-616] is under 0.1 µM; for `CNc1cc(-c2cn([C@H]3C[C@@H](COC)C3)c3ncccc23)nc2c(C(=O)N[C@H]3CC[C@@H]3OC)cnn12` [Compound I-933] it is under 0.1 µM.
Turning to `CNc1cc(-c2cn(C3COC3)c3ncccc23)nc2c(C(=O)N[C@H]3CC[C@@H]3F)cnn12` [Compound I-508], the concentration for half-maximal inhibition (IC50) was under 0.1 µM.
The figure for `CNc1cc(Nc2cccn([C@@H]3CCCOC3)c2=O)nc2c(C(=O)NC3CCC3(F)F)cnn12` (stereo partly shown) [Compound I-315] is under 0.1 µM; for `CNc1cc(Nc2cccn(C(C)C)c2=O)nc2c(C(=O)N[C@@H]3CC[C@H]3F)cnn12` [Compound I-147] it is under 0.1 µM.
The figure for `CNc1cc(-c2cnc3n(CC(=O)N4CC5(COC5)C4)cccc2-3)nc2c(C(=O)N[C@H]3CC[C@@H]3OC)cnn12` [Compound I-1012] is over 1 µM; for `CNc1cc(Nc2cccn([C@H]3C[C@@H]3F)c2=O)nc2c(C(=O)N[C@@H]3C[C@H]3OC)cnn12` [Compound I-133] it is under 0.1 µM.
In the case of `CNc1cc(Nc2cccn([C@H]3CC[C@@H]3OC)c2=O)nc2c(C(=O)N[C@H]3CC[C@H]3O)cnn12` [Compound I-240] it was under 0.1 µM; in that of `CNc1cc(Nc2cccn([C@H]3CCC[C@H]3O)c2=O)nc2c(C(=O)N[C@H]3CC[C@]3(C)OC)cnn12` [Compound I-391], under 0.1 µM.
In turn, `CNc1cc(Nc2cccn([C@@H]3CCC[C@@H](OC)C3)c2=O)nc2c(C(=O)NC3CC[C@@H]3F)cnn12` (stereo partly shown) [Compound I-227] registered a half-maximal inhibitory concentration (IC50) of under 0.1 µM.
`CNc1cc(Nc2cccn(C3CCOCC3)c2=O)nc2c(C(=O)N[C@@H]3CC[C@@H]3F)cnn12` [Compound I-193] came in with a 50% inhibitory concentration (IC50) of under 0.1 µM.
The figure for `CNc1cc(Nc2cccn([C@@H]3C[C@H]3F)c2=O)nc2c(C(=O)NC3CC[C@@H]3F)cnn12` (stereo partly shown) [Compound I-151] is under 0.1 µM.
In the case of `CNc1cc(-c2cn([C@H]3[C@@H]4COC[C@@H]43)c3ncccc23)nc2c(C(=O)N[C@H]3CC[C@@H]3O)cnn12` [Compound I-915] it was under 0.1 µM.
The figure for `CNc1cc(Nc2cccn([C@H]3CC[C@H]3O)c2=O)nc2c(C(=O)NC3CC[C@@H]3F)cnn12` (stereo partly shown) [Compound I-167] is under 0.1 µM.
In turn, `CNc1cc(Nc2cccn(C3COC3)c2=O)nc2c(C(=O)N[C@@H]3CCC3(F)F)cnn12` [Compound I-282] came in with an IC50 of under 0.1 µM.
The figure for `CNc1cc(-c2cn([C@@H]3CN(C)C[C@H]3OC)c3ncccc23)nc2c(C(=O)N[C@H]3CC[C@@H]3OC)cnn12` [Compound I-646] is under 0.1 µM; for `CNc1cc(-c2cnc3n([C@@H]4COC[C@H]4OC)cccc2-3)nc2c(C(=O)NC3CC[C@H]3F)cnn12` (stereo partly shown) [Compound I-841] it is under 0.1 µM; for `CNc1cc(Nc2cccn([C@H]3[C@@H]4COC[C@@H]43)c2=O)nc2c(C(=O)N[C@H]3CCC3(F)F)cnn12` [Compound I-307] it is under 0.1 µM.
The figure for `CNc1cc(-c2cn([C@H]3CCN(C)C3)c3ncccc23)nc2c(C(=O)N[C@H]3CC[C@@H]3OC)cnn12` [Compound I-619] is under 0.1 µM; for `CNc1cc(Nc2cccn([C@H]3[C@@H]4COC[C@@H]43)c2=O)nc2c(C(=O)N[C@H]3CC[C@H]3F)cnn12` [Compound I-204] it is under 0.1 µM; for `CNc1cc(-c2cnc3n([C@H]4COC[C@@H]4O)cccc2-3)nc2c(C(=O)N[C@@H]3C[C@@H]3F)cnn12` [Compound I-820] it is under 0.1 µM.
Compound `CNc1cc(Nc2cccn([C@H]3C[C@H](OC)C3)c2=O)nc2c(C(=O)N[C@H]3CCC3(F)F)cnn12` [Compound I-293] gave an IC50 of under 0.1 µM.
In the case of `CNc1cc(-c2cn(C3CN(C)C3)c3ncccc23)nc2c(C(=O)NC3CCC3(F)F)cnn12` (stereo not shown) [Compound I-676] it was under 0.1 µM; in that of `CNc1cc(Nc2cccn([C@H]3C[C@@H](OC)C3)c2=O)nc2c(C(=O)N[C@H]3CC[C@@H]3F)cnn12` [Compound I-174], under 0.1 µM.
In the case of `CNc1cc(-c2cn([C@H]3COC[C@H]3F)c3ncccc23)nc2c(C(=O)N[C@H]3COC[C@H]3O)cnn12` [Compound I-726] it was under 0.1 µM; in that of `O=C(N[C@H]1CC[C@@H]1F)c1cnn2c3c(c(-c4cn([C@H]5C[C@H](O)C5)c5ncccc45)nc12)OCCN3` [Compound I-757], under 0.1 µM.
The figure for `CNc1cc(-c2cnc3n([C@@H]4COC[C@H]4O)cccc2-3)nc2c(C(=O)N[C@H]3CC[C@@H]3F)cnn12` [Compound I-830] is under 0.1 µM; for `O=C(N[C@@H]1CCC1(F)F)c1cnn2c3c(c(Nc4cccn([C@H]5[C@@H]6COC[C@@H]65)c4=O)nc12)OCCN3` [Compound I-769] it is under 0.1 µM; for `CNc1cc(-c2cn([C@H]3CN(C)C[C@@H]3OC)c3ncccc23)nc2c(C(=O)N[C@H]3CC[C@@H]3OC)cnn12` [Compound I-649] it is under 0.1 µM.
`CNc1cc(Nc2cccn([C@@H]3CCCC[C@@H]3O)c2=O)nc2c(C(=O)N[C@@H]3CC[C@H]3F)cnn12` [Compound I-211] gave an IC50 of under 0.1 µM.
The figure for `CNc1cc(-c2cn([C@H]3C[C@@H](O)C3)c3ncccc23)nc2c(C(=O)N[C@H]3CC[C@@H]3OC)cnn12` [Compound I-606] is under 0.1 µM; for `CNc1cc(Nc2cccn([C@H]3C[C@H](F)C3)c2=O)nc2c(C(=O)N[C@H]3CC[C@H]3O)cnn12` [I-16, 5-((1-((1r,3S)-3-Fluorocyclobutyl)-2-oxo-1,2-dihydropyridin-3-yl)amino)-N-((1S,2R)-2-hydroxycyclobutyl)-7-(methylamino)pyrazolo[1,5-a]pyrimidine-3-carboxamide] it is under 0.1 µM; for `CNc1cc(Nc2cccn([C@H]3C[C@H](OC)C3)c2=O)nc2c(C(=O)N[C@H]3CC[C@@H]3OC)cnn12` [Compound I-255] it is under 0.1 µM.
The figure for `CNc1cc(Nc2cccn(C3CCOCC3)c2=O)nc2c(C(=O)N[C@H]3CC[C@H]3F)cnn12` [Compound I-192] is under 0.1 µM.
In the case of `CNc1cc(-c2cnc3n([C@@H]4COC[C@H]4O)cccc2-3)nc2c(C(=O)NC3CCC3(F)F)cnn12` (stereo partly shown) [Compound I-901] it was under 0.1 µM.
Regarding `CNc1cc(Nc2cccn([C@@H]3CCOC[C@@H]3OC)c2=O)nc2c(C(=O)N[C@@H]3CC[C@@H]3F)cnn12` [Compound I-235], the IC50 was under 0.1 µM.
In the case of `CNc1cc(Nc2cccn([C@H]3C[C@@H]3F)c2=O)nc2c(C(=O)N[C@@H]3CCC3(F)F)cnn12` [Compound I-279] it was under 0.1 µM.
In the case of `CNc1cc(-c2cn([C@H]3C[C@@H](COC)C3)c3ncccc23)nc2c(C(=O)N[C@@H]3CC[C@@H]3O)cnn12` [Compound I-914] it was under 0.1 µM.
